The subject of series [1] is Staphylococcus aureus FDA 209 P. Description: Antibacterial activity, agar plate dilution method (MIC), S. aureus. In kind it is cell-based. The settings on record: FDA209. The procedure: (§1) Antibacterial activities of the compounds of the present invention were tested about various microorganisms using an agar plate dilution method. Commercial cefazolin sodium was used as a control. The test results for 7-[D-α-(4-hydroxy-pyrazino[2,3-f]quinoline-3-carboxamido)-α-phenylacetamido]-3-(1-carboxymethyl-tetrazole-5-yl)thiomethyl-Δ^3 -cephem-4-carboxylic acid disodium salt (TC-203) and 7-[D-Δ-(4-hydroxy-pyrazino[2,3-f]quinoline-3-carboxamido)-Δ-(4-hydroxyphenyl)acetamido]-3-(1-carboxymethyl-tetrazole-5-yl)thiomethyl-Δ^3 -cephem-4-carboxylic acid disodium salt (TC-403) are expressed by MIC value (Minimum Inhibitory Concentration, μg/ml) and shown in Table 1.

The subject of the next series is Proteus vulgaris IID 874. Put plainly: Antibacterial activity, agar plate dilution method (MIC), P. vulgaris. Type of series: cell-based. The settings on record: IID874. The procedure:
as §1

Series [2] concerns Klebsiella pneumoniae 3K-2. Put plainly: Antibacterial activity, agar plate dilution method (MIC), K. pneumoniae. In kind it is cell-based. The settings on record: 3K2. The procedure: as §1
In series [3] the test system is Pseudomonas aeruginosa NC-5. Description: Antibacterial activity, agar plate dilution method (MIC), P. aeruginosa. In kind it is cell-based. The settings on record: NC5. The procedure:
as §1

In another series the test system is Escherichia coli NIHJC-2. Put plainly: Antibacterial activity, agar plate dilution method (MIC), E. coli. In kind it is cell-based. The settings on record: NIHJC2. The procedure:
as §1

A further series is described as follows: in vivo. Details: species or system mice. The settings on record: mouse, im. The protocol: The compounds of the present invention were administered to mice intramuscularly and change of blood levels with lapse of time was determined. Commercial cefazolin sodium was used as a control.
Series [4] can be described thus: Intraperitoneal acute toxicity in rats. In kind it is in vivo. The settings on record: dose less than 5000 mg/kg of body weight. The source says:
The compounds of the present invention are of low toxicity.

Where [5] appears, read: Escherichia coli NIHJC-2, agar plate dilution, read-out: MIC.

Three compounds from patent US4357470A, “Cephalosporin compounds” (Taisho Pharmaceutical Co., Ltd., priority 1980, dated 1982) can be followed below.

Where a name gives a salt, the structure may show the parent alone. Read-outs that look alike come from different tables or passages of the source. Where only a bound is given, the exact number is not on record here.

On to `O=C(O)Cn1nnnc1SCC1=C(C(=O)O)N2C(=O)[C@@H](NC(=O)[C@H](NC(=O)c3cnc4ccc5nccnc5c4c3O)c3ccccc3)[C@H]2SC1` [TC-203, 7-[D-α-(4-hydroxy-pyrazino[2,3-f]quinoline-3-carboxamido)-α-phenylacetamido]-3-(1-carboxymethyl-tetrazole-5-yl)thiomethyl-Δ^3-cephem-4-carboxylic acid disodium salt], for which the MIC in series [1] came to 3.13 µg/mL; in the series with Proteus vulgaris IID 874, 1.56 µg/mL; in series [2] it was 0.78 µg/mL; in series [3], 12.5 µg/mL; with Escherichia coli NIHJC-2 (setting [5]), 0.78 µg/mL. Moreover, the concentration at 0.25 h in “in vivo” worked out at 150 µg/mL. Besides, in “in vivo”, the concentration at 0.5 h worked out at 162 µg/mL. For the same compound, in the series “in vivo”, the concentration at 1 h amounted to 82 µg/mL. In “in vivo”, the concentration at 2 h stood at 32 µg/mL.
Turning to `O=C(O)Cn1nnnc1SCC1=C(C(=O)O)N2C(=O)[C@@H](NC(=O)[C@H](NC(=O)c3cnc4ccc5nccnc5c4c3O)c3ccc(O)cc3)[C@H]2SC1` [TC-403, 7-[D-Δ-(4-hydroxy-pyrazino[2,3-f]quinoline-3-carboxamido)-Δ-(4-hydroxyphenyl)acetamido]-3-(1-carboxymethyl-tetrazole-5-yl)thiomethyl-Δ^3-cephem-4-carboxylic acid disodium salt], the MIC came out at 6.25 µg/mL in series [1]; 3.13 µg/mL in the series with Proteus vulgaris IID 874; 1.56 µg/mL in series [2]; 12.5 µg/mL in series [3]; 1.56 µg/mL with Escherichia coli NIHJC-2 (setting [5]). In the series “in vivo”, this compound registered a concentration at 0.25 h of 92 µg/mL. This compound displayed a concentration at 0.5 h in the series “in vivo” of 180 µg/mL. The same compound returned a concentration at 1 h in “in vivo” of 62 µg/mL. The compound further returned a concentration at 2 h in the series “in vivo” of 42 µg/mL. Moreover, the intraperitoneal acute toxicity result in series [4] is on record as “hardly shows any intraperitoneal acute toxicity in rats at a dose less than 5000 mg/kg of body weight”.
Turning to `Cc1nnc(SCC2=C(C(=O)O)N3C(=O)[C@@H](NC(=O)Cn4cnnn4)[C@H]3SC2)s1` [cefazolin sodium, reference compound], the MIC in series [1] is below 0.1 µg/mL; in the series with Proteus vulgaris IID 874, above 100 µg/mL; in series [2] it was above 100 µg/mL; in series [3] it was above 100 µg/mL; in the series with Escherichia coli NIHJC-2 (Escherichia coli), 1.56 µg/mL. In addition, in the series “in vivo”, the concentration at 0.25 h stood at 62 µg/mL. The same compound displayed a concentration at 0.5 h in the series “in vivo” of 42 µg/mL. Moreover, the concentration at 1 h in “in vivo” worked out at 5.5 µg/mL.
